Results published in patent US12269821B2, “Discovery of novel first in class nature-inspired compounds targeting the mitochondrial function and pharmaceutical composition thereof” (University of Sharjah, priority 2018, dated 2025).
Entries after “also recorded” stand apart in the source; their conditions may differ.

Experiments:
Hepa1-6 cell line [1] = test: Cellular ATP content (CellTiter-Glo Assay); type: cell-based; settings: Hepa1-6, exposure 24 h, FIG. 1a
Method: (§1) The tested compounds were dissolved in DMSO at a concentration of 100 mM and further diluted in PBS supplemented with 10% (v/v) DMSO. When necessary dissolution was enhanced by incubation at 50° C. and sonication at maximum output for 10 min. Hepa1.6 cell line (#CRL-1830, ATCC) was cultured in DMEM culture medium containing 1 g L^−1 glucose, 10% fetal bovine serum, 2 mM glutamine, 100 U mL^−1 Penicillin and 100 μg mL^−1 Streptomycin and 30 μM oleic acid. Cells were seeded at a density of 20000 cells per well in 96 well plates and incubated for several hours to allow the cells to attach at 37° C. with 5% CO2. Cells were then supplemented with the test substances at indicated concentrations (0.01-50 μM) and incubated for indicated time periods (24-48 h).
For all assays the tested substances were further diluted in 10% DMSO/PBS and added to the cells at the indicated concentrations with a final DMSO concentration of 0.01%. […]
Cells were treated for 24 h with the test substances at the indicated concentrations. The cellular ATP content was assessed using the CellTiter-Glo Assay (#G7571, Promega) as per the manufacturer's instructions. Luminescence was detected in a plate reader spectrophotometer. The results were normalized to the luminescence intensity measured in mock treated negative controls and the positive controls treated with 10 μM oligomycin.

Hepa1-6 cell line [2] = test: Mitochondrial membrane potential (ΔΨm), TMRE fluorophore; type: cell-based; settings: FIG. 1b; for reduce ΔΨm: Hepa1-6, exposure 24 h; for Emax at 1 µM: Mus musculus, Hepa1-6, concentration of 1 μM, read-out: decrease of normalized ΔΨm, maximum response
Method: as §1
(§2) For all assays the tested substances were further diluted in 10% DMSO/PBS and added to the cells at the indicated concentrations with a final DMSO concentration of 0.01%. Negative vehicle controls were treated with 0.01% DMSO. Positive control was treated with 10 μM oligomycin or 10 μM FCCP (Carbonyl cyanide-4-(trifluoromethoxy) phenylhydrazone).
Mitochondrial membrane potential (ΔΨm) was assessed using the tetramethylrhodamine (TMRE) fluorophore. The cells were incubated with the test substances for 24 h and then loaded with TMRE at a final concentration of 200 nM for 45 min at 37° C. Positive control wells were treated with 10 μM FCCP 30 min before loading the cells with TMRE. The medium was removed and the cells were washed with PBS and supplemented with fresh culture medium. Fluorescence intensity of TRME was immediately measured (ex/em: 545/580 nm) using a plate reader spectrophotometer. The results were normalized to the fluorescence intensity measured in mock treated negative controls and the positive controls treated with 10 μM FCCP.

Hepa1-6 cell line [3] = test: Cellular redox potential (AlamarBlue); type: cell-based; settings: Hepa1-6, 24 h, FIG. 1c
Method: as §1, §2
Cells were treated for 24 h with the test substances or controls ([…] DMSO, 10 μM FCCP and 10 μM oligomycin). […] Fluorescence was measured at ex/em: 550/590 nm. […]

Hepa1-6 cell line [4] = test: BrdU incorporation/cell proliferation assay; type: cell-based; settings: for suppression of cells proliferation: Hepa1-6, exposure 48 h, FIG. 1d
Method: as §1, §2
Cells were incubated for a total of 48 h with the tested substances. During the last 12 h the cells were supplemented with 200 μM BrdU (#ab126556, Abcam). After the incubation period cells were washed with PBS. Following that the cells fixed and permeabilized using the reagents of the kit and labeled for 1 h with anti-BrdU antibodies conjugated with peroxidase. After washing the fixed cells 5 times with PBS the wells were incubated with peroxidase substrate TMB. The reaction was stopped after 30 min. The signal intensity was measure at absorbance 450 nm. Results were normalized to controls samples treated with vehicle (0.01% DMSO, negative control) or 10 μM oligomycin.

Hepa1-6 cell line [5] = test: Cytotoxicity (Pierce LDH Cytotoxicity Assay Kit); type: cell-based; settings: Hepa1-6, FIG. 1e
Method: as §1, §2
Cytotoxicity was assessed using the Pierce LDH Cytotoxicity Assay Kit (#88953, Thermo Fisher). […] Absorbance was measure at 490 nm and background at 680 nm. […] Cytotoxicity was expressed as the percentage of maximum signal intensity observed in freshly lysed cells.

CD3+ T lymphocytes = test: Activation induced proliferation of lymphocytes (PMA/Ionomycin), Cytopainter flow cytometry, T cells; type: cell-based, C57BL/6J mice; settings: stimulation with PMA/Ionomycin; for division index of T-cells: FIG. 2a; for expansion index of T-cells: FIG. 2b
Method: (§3) Spleen and lymph nodes were collected from C57BL/6J mice and stored in RPMI medium on ice until further processing. Further procedures were performed using a laminar flow hood. Single cell suspensions were created by shearing the organs between two microscopy slides. Cell suspensions were passed through a 70 μm cell strainer to exclude remaining tissue chunks. Cells were washed in PBS and centrifuged at 300 g for 5 min at 4° C. During the preparation of splenic single cell suspension, erythrocytes were removed by incubating the cells for 5 min at rt in RBC lysis buffer followed by extensive washing in PBS. Cells were resuspended in RPMI medium and cell count was determined. Lymphocytes were kept on ice until further use.
(§4) A total 17×10^6 cells were suspended in 15 mL Krebs Ringer buffer (with HEPES, 1 g L^−1 glucose, 1 mM pyruvate), supplemented with 30 μL of Cytopainter blue stock solution (500×) (#ab176726, Abcam) and incubated for 30 min at 37° C. to let the CFSE analog accumulate in the cells. The remaining Cytopainter reagent that was not incorporated into the cells was quenched by addition of 10 mL FCS and incubated for 5 min at rt. Another 25 mL of PBS were added and cells were centrifuged at 300 g for 5 min at rt. The cells were then suspended in 12.75 mL of complete RPMI culture medium. 2×10^5 cells in a volume of 150 μL were added to the wells of 96 well plates. The cytopainter-loaded cells were supplemented with the test substances, or DMSO as a negative control and oligomycin as a positive control.
(§5) Cytopainter loaded lymphocytes were stimulated with PMA (15 ng mL^−1) and Ionomycin (0.5 μg mL^−1). All cells were incubated for 60 h at 37° C., 5% CO2. Lymphocytes were then washed with 2% FBS in PBS, supplemented with anti-CD16/CD32 antibodies (to block unspecific Fc-receptor binding) and incubated for 10 min at 4° C. Subsequently cells were incubated for 20 min at 4° C. with anti-CD3 antibodies conjugated to FITC (clone: 145-2C11, #11-0031-82, eBioscience) and anti-B220 antibodies conjugated to PerCP-Cy5.5 (clone:RA3-6B2, #45-0452-82, eBioscience) to label T cells and B cells, respectively. Cells were subsequently washed with 2% FBS in PBS analyzed.
(§6) Cell proliferation was then analyzed by assessing the fluorescence intensity of cytopainter in the cells by flow cytometry. Reduced intensity of cytopainter dye indicates cells that have undergone cell division. Data was analyzed using FlowJo v10.4.2. Proliferation parameters were derived using the FlowJo Proliferation Tool. The Expansion index determines the fold-expansion of the overall culture. The Division index expresses the average number of cell divisions that a cell in the original population has undergone and also includes the cells that have never divided.

B220+ B lymphocytes = test: Activation induced proliferation of lymphocytes (PMA/Ionomycin), Cytopainter flow cytometry, B cells; type: cell-based, C57BL/6J mice; settings: stimulation with PMA/Ionomycin; for division index of B-cells: FIG. 2c; for expansion index of B-cells: FIG. 2d
Method: as §3, §4, §5, §6

isolated T cells = test: Activation induced proliferation of isolated T cells, Cytopainter flow cytometry; type: cell-based, C57BL/6J mice; settings: 2f
Method: as §3
T cell was enriched from the splenocytes by negative selection using magnetic bead separation (Pan T cell isolation kit II, mouse, #130-095-130, Miltenyi) achieving more than 90% purity. The cells were kept in RPMI medium until further use.
as §4
Cytopainter loaded T cells were stimulated using two different approaches. Either T cells stimulated by plate bound anti-CD3 antibodies (coated at 1 μg/mL) and soluble anti-CD28 antibodies (at a final concentration of 0.2 μg mL^−1), or in separate replicates by addition of the cytokines IL-2 (50 ng mL^−1) and IL-7 (10 ng mL^−1) to stimulate T cells proliferation and survival.
as §6

[6] = stimulation with anti-CD3/CD28 antibodies, FIGS. 2e
[7] = stimulation with cytokines IL-2/IL-7, FIGS. 2e

| Structure (SMILES) | deplete ATP production (Hepa1-6 cell line [1]) | reduce ΔΨm (Hepa1-6 cell line [2]) [%] | Emax at 1 µM (Hepa1-6 cell line [2]) [%] | effect on redox potential (Hepa1-6 cell line [3]) | suppression of cells proliferation (Hepa1-6 cell line [4]) | cytotoxic necrosis (Hepa1-6 cell line [5]) | division index of T-cells (CD3+ T lymphocytes) | expansion index of T-cells (CD3+ T lymphocytes) | division index of B-cells (B220+ B lymphocytes) | expansion index of B-cells (B220+ B lymphocytes) | activation-induced proliferation of isolated T-cells (isolated T cells; [6]) | activation-induced proliferation of isolated T-cells (isolated T cells; [7]) | rank in diminishing the proliferation of Hepa1-6 (Hepa1-6 cell line [4]; Hepa1-6, 1d versus 1q) |
| --- | --- | --- | --- | --- | --- | --- | --- | --- | --- | --- | --- | --- | --- |
| C[C@]12CCC(=O)C[C@H]1N1CCc3c([nH]c4ccccc34)[C@@H]1CO2 [1q, (2aS,6aR,14bR)-2a-Methyl-3,4,6,6a,8,9,14,14b-octahydro-1H-benzo[5′,6′][1,4]oxazino[4′,3′:1,2]pyrido[3,4-k]indol-5(2aH)-one] | ≤ 50% | 77 | 90 | increase; also recorded: strongly affected | potent suppression | without noticeable cytotoxic necrosis | non-significant effects | non-significant effects | non-significant effects | non-significant effects | did not significantly affect | did not significantly affect | – |
| C[C@]12C=CC(=O)C[C@H]1N1CCc3c([nH]c4ccccc34)[C@@H]1CO2 [compound 1d, (2aS,6aR,14bR)-2a-Methyl-6,6a,8,9,14,14b-hexahydro-1H-benzo[5′,6′][1,4]oxazino[4′,3′:1,2]pyrido[3,4-b]indol-5(2 aH)-one] | up to 60% | 82 | 82 | increase; also recorded: strongly affected | potent suppression | without noticeable cytotoxic necrosis | non-significant effects | non-significant effects | non-significant effects | non-significant effects | did not significantly affect | did not significantly affect | most potent |
